This note sets out measurements from PubChem BioAssay AID1996.

SMILES strings stand for the structures. ≈ marks a conversion by molar mass, not a printed value.

The conditions of this data set: buffer; pH 7.4; 200.0 µM.
The term kinetic solubility denotes the concentration staying in solution when a stock, usually in DMSO, is diluted into the medium. `Cc1cccc(C)c1NC(=O)C1CSC2(C)CCC(=O)N12` (configuration not stated) yielded a solubility (kinetic) above 45.7 µg/mL.

In turn, `O=C(Nc1ccc2c(c1)Cc1ccccc1-2)c1ccccc1F` came in with a kinetic solubility below 0.6 µg/mL. Under `COc1ccc(CNC(=S)Nc2ccc(Br)cc2)cc1` stands below 0.4 µg/mL. `C=CCN1C(=O)/C(=C/c2ccc(Br)s2)C(=O)NC1=S` displayed a solubility (kinetic) of 15.7 µg/mL (≈ 43.9 µM). Turning to `O=C(Cn1cc([N+](=O)[O-])cn1)N1CCN(c2ccccc2)CC1`, the solubility (kinetic) is above 47.3 µg/mL. Turning to `COC(=O)c1c(NC(C)=O)sc(C(=O)N2CCOCC2)c1C`, the solubility (kinetic) is above 49 µg/mL.

For the molecule `COc1cc(C2C(C#N)=C(SC)NC3=C2C(=O)CCC3)ccc1O` (configuration not stated), the kinetic solubility was above 51.4 µg/mL.

`COc1cc(OC)c(C(=O)Nc2cccc3ccccc23)cc1OC` displayed a kinetic solubility below 0.7 µg/mL.

`Cn1c(=O)n(C)c2cc(NC(=O)Cc3ccccc3[N+](=O)[O-])ccc21`: the solubility (kinetic) was 47.6 µg/mL (≈ 140 µM). For the molecule `CCCC(=O)N1CCC(CCC(=O)NC2CC2)CC1`, the solubility (kinetic) is above 40 µg/mL. Consider `CC(SCC(=O)O)c1nc2ccccc2[nH]1` (configuration not stated), for which the solubility (kinetic) is above 35.4 µg/mL. Molecule `CSc1nc(N)nc(N(C)C)n1` yielded a kinetic solubility of 24.3 µg/mL (≈ 131 µM).

`O=C(COc1ccccc1)Nc1c(Cl)ccc2nsnc12` gave a solubility (kinetic) of 4.7 µg/mL (≈ 14.7 µM). Consider `COc1cccc(CN(C)Cc2nc(C3CC3)no2)c1`, for which the kinetic solubility is above 41 µg/mL.

Take `O=[N+]([O-])c1cccc(-c2csc(CS(=O)(=O)Cc3ccco3)n2)c1`: the solubility (kinetic) is 0.6 µg/mL (≈ 1.65 µM). `O=C1CC(c2ccsc2)Sc2ccccc2N1` (configuration not stated) came in with a solubility (kinetic) of 33.9 µg/mL (≈ 130 µM). The molecule `COc1cc(SC)ccc1C(=O)NC1CCCc2ccccc21` (configuration not stated) registered a kinetic solubility below 0.7 µg/mL. Under `Fc1ccc(-c2nc(-c3cccs3)no2)cc1` stands below 0.3 µg/mL; under `CC(C)(C)NC(=O)c1ccccc1-c1nc2ccccc2s1`, 35.6 µg/mL (≈ 115 µM). `Cc1ccc(C)n1-c1nccc(-c2ccco2)n1`: the solubility (kinetic) came out at 23.5 µg/mL (≈ 98.2 µM). The molecule `NC(=O)c1cc(S(=O)(=O)NCCCc2ccco2)cs1` showed a solubility (kinetic) above 47.2 µg/mL. `COc1cccc(/C=C/C(=O)OCC(=O)Nc2ccc(Cl)cn2)c1` had a kinetic solubility below 0.4 µg/mL.

`CC(C)(C)c1ccc(C(=O)Nc2ccc(NC(=O)C(=O)O)cc2)o1` displayed a kinetic solubility of 44.5 µg/mL (≈ 135 µM). Molecule `CC(=O)N=c1sc(S(N)(=O)=O)nn1C` came in with a kinetic solubility above 35.4 µg/mL. With `O=C(NCC1CCCCC1)c1cccnc1` the figure was 31.1 µg/mL (≈ 142 µM); with `CNC(=O)c1cc2c(s1)-c1ccccc1CC2`, 5.2 µg/mL (≈ 21.4 µM).

The molecule `CCOC(=O)C1=C(COC(=O)[C@@H](NC(=O)c2cccc(C)c2)C(C)C)NC(=O)NC1C` (some centres not stated) registered a solubility (kinetic) above 64.7 µg/mL. Under `Cc1cc(OCC(=O)N2CCCN(C)CC2)ccc1Cl` stands above 44.5 µg/mL; under `COc1ccccc1C(=O)NCCC(=O)N(C)Cc1ccc(C)o1`, above 49.6 µg/mL. In turn, `Cc1cc(C(=O)OCC(=O)NC2CCCC(C)C2C)c(C)o1` (configuration not stated) yielded a solubility (kinetic) of 12.4 µg/mL (≈ 40.3 µM). Consider `CC1CCN(C(=O)c2ccc(CNS(=O)(=O)c3ccc(C(C)(C)C)cc3)cc2)CC1`, for which the solubility (kinetic) was found to be 8.3 µg/mL (≈ 19.4 µM). `O=C(NC(=O)c1ccccc1O)c1ccc2c(c1)CCO2` displayed a solubility (kinetic) above 42.5 µg/mL. Take `CCc1ccccc1NC(=O)NC(C)c1ccc2c(c1)OCO2` (configuration not stated): the kinetic solubility was found to be 0.6 µg/mL (≈ 1.92 µM).

In turn, `CCc1ccc(OCC(=O)Nc2ccncc2)c(Br)c1` had a solubility (kinetic) of 15.5 µg/mL (≈ 46.2 µM). `CC(=O)c1c(C)[nH]c(C(=O)Nc2nccs2)c1C` returned a kinetic solubility of 20.8 µg/mL (≈ 79 µM). Under `Cc1nnc(SCC(=O)Nc2ccc(N(C)C)cc2)n(N)c1=O` stands above 50.2 µg/mL; under `CCOC(=O)c1nc(Nc2ccccc2C)c2ccccc2n1`, above 46.1 µg/mL. Molecule `O=C(Oc1c(-c2ccccc2)c(=O)n2c3c(cccc13)CC2)c1ccco1` returned a solubility (kinetic) of 32.6 µg/mL (≈ 91.2 µM). Molecule `COc1ccc(C(=O)N(C)Cc2ccccc2F)cc1S(=O)(=O)N1CCCC1` returned a solubility (kinetic) above 61 µg/mL. As to `Cn1c(=O)[nH]c(NCCc2ccc(O)cc2)c([N+](=O)[O-])c1=O`, the solubility (kinetic) was above 45.9 µg/mL. The molecule `Cc1ccc(NC(=O)Nc2ccon2)cc1Cl` had a kinetic solubility of 4 µg/mL (≈ 15.9 µM).

The molecule `COc1cc(C2C(C#N)=C(N)OC3=C2C(=O)CC(C)(C)C3)cc2c1OCO2` (configuration not stated) displayed a solubility (kinetic) of 21.6 µg/mL (≈ 58.6 µM). With `Cc1ccc(C2(C)NC(=O)N(CC(=O)N(c3ccccc3)C3CCS(=O)(=O)C3)C2=O)cc1` (configuration not stated), the kinetic solubility is above 68.3 µg/mL. `Cc1nc(C)c(-c2csc(Nc3ccccn3)n2)s1`: the kinetic solubility came to 10.2 µg/mL (≈ 35.4 µM). For `CN1CCC(N(C)CC(O)c2ccccc2)CC1.O=C(O)C(=O)O` (configuration not stated), the solubility (kinetic) is above 50.8 µg/mL. Take `Cc1ccc(NC(=O)N2CCc3ccccc3C2)c(C)c1`: the solubility (kinetic) is 5.4 µg/mL (≈ 19.3 µM). With `O=C(CC(=O)Nc1nc(C23CC4CC(CC(C4)C2)C3)cs1)NCCO` the figure was 50.8 µg/mL (≈ 140 µM); with `COc1ccc(CNC(=O)c2cc(=O)c3cc(C)ccc3o2)cc1`, below 0.7 µg/mL.

The molecule `COc1cccc2[nH]c(C(=O)NCc3ccccc3)cc12.Cl` yielded a solubility (kinetic) of 10.9 µg/mL. As for `CN(C)S(=O)(=O)c1ccc(C(=O)OC2CCOC2=O)cc1` (configuration not stated), the kinetic solubility was above 47 µg/mL. Consider `Cc1ccc(C)c(NC(=O)CCC(=O)NN=C2CCCC2)c1`, for which the kinetic solubility was above 45.2 µg/mL. With `COc1ccccc1N(CCC#N)C(=S)Nc1ccc(S(=O)(=O)N2CCOCC2)cc1` the figure was above 69.1 µg/mL; with `CCC(C)NC(=O)c1ccc(CSCc2ccccc2Cl)o1` (configuration not stated), 30.7 µg/mL (≈ 90.9 µM).

Turning to `CS(=O)(=O)/C(C#N)=C/c1c(-c2ccccc2)nc2n1CCS2`, the solubility (kinetic) stood at 2.4 µg/mL (≈ 7.24 µM). On to `CC(=O)c1cn(CCOc2ccccc2C)c2ccccc12`, for which the kinetic solubility was below 0.6 µg/mL. Molecule `CC(C)NC(=O)CC1(C(=O)NCc2ccc(Cl)cc2)CCCC1` yielded a solubility (kinetic) above 50.5 µg/mL. Molecule `CCN(C(=O)c1cn(C)c(=O)c2ccccc12)c1ccccc1F` yielded a solubility (kinetic) above 48.7 µg/mL. In turn, `CCOC(=O)c1sc(NC(=O)Cc2ccc(F)cc2)nc1C` displayed a kinetic solubility of 3.8 µg/mL (≈ 11.8 µM). With `Cc1ccc2nc(SCC(=O)Nc3ccc(C(N)=O)cc3)[nH]c2c1` the figure was 9.9 µg/mL (≈ 29.1 µM); with `CC(C)n1cnc2c(oc3ccccc32)c1=O`, 7 µg/mL (≈ 30.7 µM).

Turning to `CC(C)N1CCN(Cc2cc3c(cc2Cl)OCO3)CC1CCO` (configuration not stated), the solubility (kinetic) worked out at 39.9 µg/mL (≈ 117 µM). For the molecule `Cc1ccc(S(=O)(=O)/N=C(/c2ccccc2)N(C)C)c(C)c1`, the solubility (kinetic) was above 47.5 µg/mL. With `O=C(O)c1cccc(Nc2nc3ccccc3nc2NS(=O)(=O)c2ccccc2)c1` the figure was above 63.1 µg/mL; with `COc1ccc2nc(NC(=O)c3ccccc3F)sc2c1`, 0.5 µg/mL (≈ 1.65 µM); with `CCCOc1ccc(Cl)cc1/C=C1/C(=O)ON=C1C`, 29.2 µg/mL (≈ 104 µM).

In turn, `Cc1ccnc(NC(=O)Cc2ccc(-c3ccccc3)cc2)c1` came in with a kinetic solubility of 4.3 µg/mL (≈ 14.2 µM). Under `O=C(O)CN(CCc1ccccc1)S(=O)(=O)c1ccccc1` stands above 47.9 µg/mL; under `COC(=O)c1cc(S(=O)(=O)N2CCC(C)CC2)cn1C`, 41.9 µg/mL (≈ 139 µM). Turning to `CCOc1ccccc1CN1CCN(C2CCC2)CC1CCO` (configuration not stated), the kinetic solubility amounted to 39.9 µg/mL (≈ 125 µM). For the molecule `Cc1nc([N+](=O)[O-])cn1CCC#N`, the solubility (kinetic) is above 27 µg/mL. As to `O=c1sc2ccccc2c(N2CCOCC2)c1[N+](=O)[O-]`, the solubility (kinetic) stood at 12.8 µg/mL (≈ 43.8 µM). In turn, `Cc1cccc(NC(=O)COc2ccc3c(c2)CCC3)n1` displayed a kinetic solubility of 2.4 µg/mL (≈ 8.5 µM). For the molecule `CCCNc1nc(N2CCCC2)nc(N2CCCC2)n1`, the solubility (kinetic) stood at 33.6 µg/mL (≈ 122 µM). In turn, `CCc1cccc2c1NC(=O)C2(O)N1CCCC(C)C1` (configuration not stated) displayed a kinetic solubility of 38.5 µg/mL (≈ 140 µM). With `COc1ccccc1N1CCNC(C)C1=O.Cl` (configuration not stated) the figure was 33.4 µg/mL; with `CCCC(=O)N/C(N)=N/c1nc2ccccc2o1`, 11.9 µg/mL (≈ 48.3 µM); with `Cc1ccc(OCCCN2CCOCC2)cc1`, 26.7 µg/mL (≈ 113 µM). As for `COc1ccccc1N1CCN(C(=O)C2CC2)CC1`, the kinetic solubility was above 39.1 µg/mL. In turn, `CCn1cc(C(=O)O)c(=O)c2cnc(N3CCN(C(=S)Nc4ccccc4)CC3)nc21` showed a solubility (kinetic) of 27.2 µg/mL (≈ 62 µM). Turning to `O=C1/C(=C/c2ccc(O)cc2)SC(=S)N1CC1CCCO1` (configuration not stated), the solubility (kinetic) was 1.3 µg/mL (≈ 4.04 µM).

In turn, `CCCC(=O)Nc1ccccc1NC(=O)c1ccc2c(c1)OCO2` came in with a kinetic solubility above 49 µg/mL. `Cc1ccc(Nc2ncnc(N)n2)cc1` displayed a solubility (kinetic) of 29.5 µg/mL (≈ 147 µM). `O=C(NCCCSc1ccccc1)c1cc(Cl)ccc1O` registered a solubility (kinetic) of 0.9 µg/mL (≈ 2.8 µM).

Take `COc1ccc(OC)c(/C=C/C(=O)OCC(=O)N2CCCCC2)c1`: the solubility (kinetic) is above 50 µg/mL. Under `c1ccc(Cn2c(NCc3ccncc3)nc3ccccc32)cc1` stands above 47.2 µg/mL; under `CC(C)N1C(=O)CCC1C(=O)N1CCN(c2ccc(F)cc2)CC1` (configuration not stated), above 50 µg/mL. `O=C(COC(=O)COc1ccc(Cl)cc1)NCc1ccc2c(c1)OCO2`: the kinetic solubility came to 2.3 µg/mL (≈ 6.09 µM).

The molecule `CN1C[C@H](C(=O)N[C@]2(C)O[C@@]3(O)[C@@H]4CCCN4C(=O)[C@H](Cc4ccccc4)N3C2=O)CC2c3cccc4[nH]cc(c34)C[C@H]21.CS(=O)(=O)O` (some centres not stated) came in with a kinetic solubility of 62.9 µg/mL. Under `COc1ccccc1C(=O)COC(=O)c1cnc(C)cn1` stands above 42.9 µg/mL; under `Cc1ccc(Cn2c(CCC(=O)O)nc3ncccc3c2=O)cc1`, above 48.5 µg/mL. The molecule `Cn1ncc(Br)c1C(=O)N1CCCC1` came in with a kinetic solubility above 38.7 µg/mL.

For `O=C(NC1CC2CCCC(C1)N2C(=O)Nc1ccccc1F)C1CC1` (configuration not stated), the solubility (kinetic) was 16.2 µg/mL (≈ 46.9 µM). `CCOc1ccc(N=Cc2c(O)n(Cc3ccccc3)c(=S)[nH]c2=O)cc1` yielded a kinetic solubility of 0.5 µg/mL (≈ 1.31 µM).

Turning to `COC(=O)c1cc(-c2ccccc2)nc2nc(SC)[nH]c(=O)c12`, the kinetic solubility is 9.8 µg/mL (≈ 29.9 µM). Take `N#C/C(=N\O)c1nc2ccccc2s1`: the kinetic solubility was above 30.5 µg/mL. Regarding `Nn1c(SCC(=O)Nc2ccc3c(c2)OCO3)nncc1=O`, the kinetic solubility is above 48.2 µg/mL. In the case of `CC(=O)N(C)c1ccc(NS(=O)(=O)c2cccc3nsnc23)cc1`, the solubility (kinetic) was above 54.4 µg/mL.

As to `CCOC(=O)c1c(C)[nH]c(C(=O)COC(=O)c2cccnc2Cl)c1C`, the solubility (kinetic) was determined as 4.7 µg/mL (≈ 12.9 µM). In turn, `Nc1cc(N2CCCC2)c(Cl)cc1[N+](=O)[O-]` returned a kinetic solubility of 3 µg/mL (≈ 12.4 µM). Consider `CCn1c2ccccc2c2nc3cc(S(=O)(=O)N4CCOCC4)ccc3nc21`, for which the kinetic solubility was determined as 2.4 µg/mL (≈ 6.05 µM). Molecule `CSCC(=O)N1CCC(CCC(=O)NC2CC2)CC1` had a kinetic solubility above 42.7 µg/mL. `CCc1ccc(NC(=O)CCC(=O)c2ccccc2)cc1` displayed a kinetic solubility of 7.5 µg/mL (≈ 26.7 µM).
